Laboratory results: patent US20140323500A1, “NADPH OXIDASE 4 INHIBITORS AND USE THEREOF” (GENKYOTEX SA, priority 2011, published 2014)

Test system: female mice subjected to ovariectomy
Assay: Ovariectomy-induced osteoporosis (bone loss) in mice
Assay type: in vivo
Description: BMD of the left femur was measured by peripheral quantitative computed tomography (QCT) using an XCT Research QCT machine (Stratec Medizintechnik, Pforzheim, Germany). One slice (0.2 mm thick) in the mid-diaphysis of the femur and 3 slices in the distal femoral metaphysis located 1.5, 2, and 2.5 mm proximal to the articular surface of the knee joint were measured. BMD values of the distal femoral metaphysic were calculated as the mean of 3 slices. A voxel size of 0.070 mm and a threshold of 710 mg/cm^3 were used for calculation of BMD as described in Hofbauer et al., 2009, Arthritis Rheum., 60(5):1427-1437.
The control group received daily gavages by the solvent.
To study the latter effect, female mice were subjected to ovariectomy to induce osteoporosis and the effect of pharmacological inhibition of Nox4 with a Nox4 inhibitor as well as acute genetic knockout of the protein was studied. For this, mice were subjected to ovariectomy 8 weeks after birth and treatment at 60 mg/kg with a Nox4 inhibitor of the invention was started 2 days after the operation and continued throughout the study (6 weeks).
3, Hamburg was used which completely blocks osteoclast activity. […] For this, bones were scanned with a skyscan 1176 and bone density was analysed with the integrated software using two phantoms with 0.25 g/cm^3 and 0.75 g/cm^3 as reference. A 2 mm portion of the femur from the tibia plateau was analysed for total and trabecular bone density by the software provided by the manufacturer of the machine. […] For this method, the femurs were loaded to failure by 3-point bending tests using a Zwick Z020/TN2A materials testing machine (Zwick, Ulm, Germany) with a 1 kN force detector, and a force resolution of 0.01N. The distance between the lower supports for the bending tests was 5 mm. Crosshead speed during testing was 0.2 mm/minute for all measurements. From the force-displacement data, ultimate force (Fmax; in N) was calculated.

COc1ccc(-c2c3c(=O)n(-c4ccccc4OC)[nH]c3cc(=O)n2Cc2cccnc2)c(F)c1 [Compound (1), 4-(2-fluoro-4-methoxyphenyl)-2-(2-methoxyphenyl)-5-(pyridin-3-ylmethyl)-1H-pyrazolo[4,3-c]pyridine-3,6(2H,5H)-dione]
absolute bone density (total) (distal femur 6 weeks after ovariectomy, compound 1 at 20 and 60 mg/kg, pamidronat 10 mg/kg once a week, microCT, FIG. 6A): increased absolute bone density
absolute trabecular bone density (distal femur 6 weeks after ovariectomy, compound 1 at 20 and 60 mg/kg, pamidronat 10 mg/kg once a week, microCT, FIG. 6B): increased
relative inhibition of ovarectomy-induced total bone loss (distal femur 6 weeks after ovariectomy, compound 1 at 20 and 60 mg/kg, pamidronat 10 mg/kg once a week, microCT, FIG. 6C): ~50%
relative inhibition of trabecular bone loss (distal femur 6 weeks after ovariectomy, compound 1 at 20 and 60 mg/kg, pamidronat 10 mg/kg once a week, microCT, FIG. 6D): approximately 60%
bone breaking strength (3-point breaking test) (highest concentration (of 20 and 60 mg/kg), femur, 6 weeks after ovariectomy, FIG. 6E): significant increase in bone breaking strength
